The test system of experiment [1] is V106A (HIV-1 mutant strain). Put plainly: EC50 assay, V106A strain. The note with it: Human immunodeficiency virus 1, read-out: EC50 V106A (nM). It is filed as cell-based. An excerpt: (§1) Reverse TranscriptASE (RT) Assays
(§2) The assays are as described in WO 01/96338A1, the contents of which are hereby incorporated herein. The results are listed in Tables 8 as IC50(nM) and EC50(nM).

The test system of experiment [2] is K103N/Y181C (HIV-1 double mutant strain). Put plainly: EC50 assay, K103N/Y181C strain. The conditions noted are these: Human immunodeficiency virus 1, read-out: EC50 K103N/Y181C (nM), K103N/Y181C double mutant. It is filed as cell-based.
Source text: as §1, §2

Experiment [3] has as its target T1, Y188L mutant RT (HIV-1 RT) (Human immunodeficiency virus type 1 group M subtype B, UniProt P03366, Y787L).
T1 construct: mutations that occur in the reverse transcriptase segment of the pol gene
Description: biochemical. The note with it: IC50 Y188L (nM).

Experiment [4] deals with T2, K103N/Y181C double mutant RT (HIV-1 RT) (Human immunodeficiency virus type 1 group M subtype B, UniProt P03366, K702N/Y780C).
T2 construct: mutations that occur in the reverse transcriptase segment of the pol gene
Description: biochemical.

Experiment [5] deals with T3, V106A mutant RT (HIV-1 RT) (Human immunodeficiency virus type 1 group M subtype B, UniProt P03366, V705A).
T3 construct: mutations that occur in the reverse transcriptase segment of the pol gene
Put plainly: biochemical. The conditions noted are these: IC50 V106A (nM).

The target in a further experiment is T4, WT RT (HIV-1 RT) (Human immunodeficiency virus type 1 group M subtype B, UniProt P03366).
T4 construct: mutations that occur in the reverse transcriptase segment of the pol gene
Description: biochemical.

Experiment [6] relates to WT RT (HIV-1 wild type strain). Description: EC50 assay, WT RT strain. It is filed as cell-based. The note with it: Human immunodeficiency virus 1, read-out: EC50 WT RT (nM).
Source text: as §1, §2

Bounds are passed on as bounds.

For `CCN1c2ncc(CCOc3ccc(NS(=O)(=O)C(F)(F)F)c4ccccc34)cc2C(=O)N(C)c2ccc(F)nc21` [Entry 2002], the EC50 in experiment [1] is 100 to 1000 nM; in experiment [2] it was less than 100 nM; in experiment [6], less than 100 nM. For the same molecule, the IC50 in experiment [3] was more than 1000 nM; in experiment [4], 100 to 1000 nM; in experiment [5], more than 1000 nM; against WT RT (HIV-1 RT) it was less than 100 nM.

For the molecule `CCN1c2ncc(CCOc3ccc(C(=O)O)c4c3CCCC4)cc2C(=O)N(C)c2cccnc21` [Entry 5001], the EC50 was 100 to 1000 nM in experiment [1], less than 100 nM in experiment [2] and less than 100 nM in experiment [6]. In addition, the IC50 was more than 1000 nM in experiment [3], 100 to 1000 nM in experiment [4], more than 1000 nM in experiment [5] and less than 100 nM against WT RT (HIV-1 RT).

As to `CCN1c2ncc(CCOc3ccc(C(=O)O)c4c3CCN(C(=O)OC)C4)cc2C(=O)N(C)c2cccnc21` [Entry 7002], the values for the EC50 in experiment [1], in experiment [2] and in experiment [6] were 100 to 1000 nM, less than 100 nM and less than 100 nM, respectively. The IC50 in experiment [3] is 100 to 1000 nM; in experiment [4], 100 to 1000 nM; in experiment [5], more than 1000 nM; on WT RT (HIV-1 RT), less than 100 nM.

The values above are taken from patent US6673791B2, “Non-nucleoside reverse transcriptase inhibitors” (Boehringer Ingelheim (Canada) Ltd., priority 2001, dated 2004).
